Some test systems named below: A549 NSCLC; HT29 colon; K-562 leukemia; MALME-3M melanoma; NCI/ADR-RES ovarian; OVCAR-4 ovarian; SK-OV-3 ovarian; TK-10 renal; UACC-257 melanoma; UACC-62 melanoma.
Holding throughout (assay): NCI tumour cell line growth inhibition, 48 h

Each structure is given as a SMILES string. Values joined by “and” are separate entries in the source; they are usually repeats but may differ in a detail not shown here. Identical values can stand only once.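 In this assay, cells in 96-well plates receive the compound at five concentrations for 48 hours. Endpoints are linearly interpolated between the surrounding concentrations. Here, GI50 denotes the concentration required for 50% inhibition of growth. The concentration for full growth arrest is given as TGI.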 Where only a bound is given, the exact number is not on record here.

The text below walks through data of PubChem BioAssay (NCI).

For the compound `CC1(C)N=C(N)N=C(N)N1c1ccc(OCC(=O)Nc2ccc(S(=O)(=O)F)cc2Cl)c(Cl)c1`, the GI50 is 2.5 µM with A549 NSCLC; 2.57 µM in the experiment on HT29 colon; 0.594 µM in the experiment with K-562 leukemia; 33.8 µM in the experiment with MALME-3M melanoma; 61.1 µM in the experiment on NCI/ADR-RES ovarian; above 100 µM in the experiment on OVCAR-4 ovarian. Also, the GI50 with SK-OV-3 ovarian was above 100 µM; in the experiment on TK-10 renal it was 15.4 µM; with UACC-257 melanoma it was above 100 µM; with UACC-62 melanoma, 1.16 µM. Further, the TGI with A549 NSCLC, in the experiment with HT29 colon, in the experiment with K-562 leukemia, in the experiment on MALME-3M melanoma, in the experiment with NCI/ADR-RES ovarian and in the experiment on OVCAR-4 ovarian was above 100 µM each time. Besides, the TGI in the experiment with SK-OV-3 ovarian, in the experiment with TK-10 renal, in the experiment on UACC-257 melanoma and in the experiment on UACC-62 melanoma was above 100 µM in each case.

Consider `NS(=O)(=O)c1ccc(N=Nc2c(O)[nH]c3ccc(C(=O)NCCCn4ccnc4)cc23)cc1`, for which the GI50 in the experiment on A549 NSCLC, with HT29 colon, with K-562 leukemia, in the experiment on MALME-3M melanoma, in the experiment on NCI/ADR-RES ovarian and in the experiment on OVCAR-4 ovarian was above 25 µM throughout. Besides, the GI50 in the experiment on SK-OV-3 ovarian, with TK-10 renal, in the experiment on UACC-257 melanoma and with UACC-62 melanoma was above 25 µM in each case. For the same compound, the TGI with A549 NSCLC, in the experiment on HT29 colon, with K-562 leukemia, in the experiment with MALME-3M melanoma, in the experiment on NCI/ADR-RES ovarian and with OVCAR-4 ovarian was above 25 µM in each case. For the same compound, the TGI in the experiment on SK-OV-3 ovarian, in the experiment with TK-10 renal, with UACC-257 melanoma and in the experiment with UACC-62 melanoma was above 25 µM throughout.

Consider `Cc1ccc(C2=NN(c3ccc(S(=O)(=O)NC(=O)NCc4ccccc4)cc3)C(c3ccc(N(C)C)cc3)C2)c(C)c1` (stereo not given), for which the GI50 with A549 NSCLC is 3.46 µM; in the experiment with HT29 colon it was 4.53 µM; in the experiment with K-562 leukemia it was 3.51 µM; with MALME-3M melanoma it was 2.9 µM; in the experiment with NCI/ADR-RES ovarian it was 3.93 µM; in the experiment with OVCAR-4 ovarian it was 3.54 µM. Besides, the GI50 in the experiment on SK-OV-3 ovarian is 8.43 µM; with TK-10 renal, 6.46 µM; with UACC-257 melanoma, 4.64 µM; in the experiment on UACC-62 melanoma, 2.5 µM. The TGI in the experiment with A549 NSCLC was 16.4 µM; with HT29 colon it was 19.1 µM; in the experiment on K-562 leukemia it was above 100 µM; with MALME-3M melanoma it was 9.14 µM; in the experiment with NCI/ADR-RES ovarian it was 25.1 µM; in the experiment with OVCAR-4 ovarian, above 100 µM. Besides, the TGI in the experiment with SK-OV-3 ovarian was above 100 µM; in the experiment with TK-10 renal, 35.9 µM; in the experiment with UACC-257 melanoma it was above 100 µM; in the experiment on UACC-62 melanoma it was 6.8 µM.

`NC(=O)c1c[nH]c2ncnc(N)c12`: the GI50 in the experiment with A549 NSCLC was above 100 µM; in the experiment on HT29 colon it was 26.6 µM; with K-562 leukemia, 93.9 µM; in the experiment with MALME-3M melanoma, 21.3 µM; in the experiment on NCI/ADR-RES ovarian it was above 100 µM; in the experiment on OVCAR-4 ovarian, 24.1 µM. Also, the GI50 in the experiment with SK-OV-3 ovarian is 25.9 µM; in the experiment with TK-10 renal, 19.6 µM; in the experiment with UACC-257 melanoma, above 100 µM; in the experiment on UACC-62 melanoma it was 95.6 µM. Moreover, the TGI in the experiment with A549 NSCLC was above 100 µM; with HT29 colon, above 100 µM; in the experiment on K-562 leukemia it was above 100 µM; in the experiment on MALME-3M melanoma it was 71.1 µM; in the experiment with NCI/ADR-RES ovarian it was above 100 µM; with OVCAR-4 ovarian, above 100 µM. The TGI is 83 µM in the experiment on SK-OV-3 ovarian, above 100 µM in the experiment with TK-10 renal, above 100 µM in the experiment on UACC-257 melanoma and above 100 µM in the experiment on UACC-62 melanoma.

Take `O=C(CCN1CCCCC1)c1csc2ccccc12`: the TGI in the experiment on A549 NSCLC, with HT29 colon, in the experiment on K-562 leukemia, with MALME-3M melanoma, in the experiment on NCI/ADR-RES ovarian and with OVCAR-4 ovarian was above 100 µM throughout. Moreover, the TGI in the experiment with SK-OV-3 ovarian, with TK-10 renal, with UACC-257 melanoma and with UACC-62 melanoma was above 100 µM throughout.

Consider `CN1C(=O)C(N=Nc2ccc([N+](=O)[O-])cc2)SC1=S` (stereo not given), for which the GI50 with A549 NSCLC was 5.78 µM and 14.1 µM; with HT29 colon it was 3.63 µM and 10.8 µM; in the experiment with K-562 leukemia, 0.625 µM and 2.17 µM; in the experiment on MALME-3M melanoma it was 3.26 µM and 18.5 µM; with NCI/ADR-RES ovarian, 2.62 µM and 4.58 µM; with OVCAR-4 ovarian, 6.35 µM and 9.5 µM. Further, the GI50 was 7.51 µM and 11.2 µM with SK-OV-3 ovarian; 12.6 µM and 5.87 µM in the experiment with TK-10 renal; 3.63 µM and 10.9 µM in the experiment on UACC-257 melanoma; 3.29 µM and 2.85 µM in the experiment with UACC-62 melanoma. Besides, the TGI in the experiment on A549 NSCLC was above 100 µM; in the experiment with HT29 colon it was 33.7 µM and > 100 µM; in the experiment with K-562 leukemia it was above 100 µM; in the experiment with MALME-3M melanoma, 19.5 µM and > 100 µM; in the experiment on NCI/ADR-RES ovarian, 64.4 µM and 37 µM; in the experiment on OVCAR-4 ovarian, above 100 µM. In addition, the TGI in the experiment on SK-OV-3 ovarian was 74.4 µM and 51.5 µM; with TK-10 renal, 79.7 µM and > 100 µM; in the experiment with UACC-257 melanoma it was 27.1 µM and 54.4 µM; with UACC-62 melanoma, above 100 µM.

Take `CCN1C(=O)/C(=c2\sc3n(c2=O)C2C(NN=3)N(CC)C(=O)N2CC)c2ccccc21` (stereo not given): the GI50 with A549 NSCLC is 0.795 µM; in the experiment with HT29 colon it was 0.369 µM; in the experiment on K-562 leukemia, 0.362 µM; in the experiment with MALME-3M melanoma it was 0.596 µM; with NCI/ADR-RES ovarian, 0.411 µM; with OVCAR-4 ovarian it was 5.48 µM. The GI50 is 2.12 µM with SK-OV-3 ovarian, 5.97 µM in the experiment on TK-10 renal, 22.4 µM in the experiment on UACC-257 melanoma and 0.426 µM in the experiment with UACC-62 melanoma. Moreover, the TGI in the experiment with A549 NSCLC is above 100 µM; in the experiment on HT29 colon, above 100 µM; in the experiment on K-562 leukemia it was above 100 µM; with MALME-3M melanoma, above 100 µM; in the experiment with NCI/ADR-RES ovarian, 13.8 µM; in the experiment with OVCAR-4 ovarian it was above 100 µM. The TGI in the experiment with SK-OV-3 ovarian is above 55.7 µM; in the experiment on TK-10 renal, 24.6 µM; with UACC-257 melanoma, above 100 µM; in the experiment with UACC-62 melanoma, 30 µM.

Take `O=C(O)CN1C(=O)OC(c2ccccc2)C1=O` (stereo not given): the TGI in the experiment with A549 NSCLC, in the experiment on HT29 colon, in the experiment with K-562 leukemia, with MALME-3M melanoma, in the experiment on NCI/ADR-RES ovarian and with OVCAR-4 ovarian was above 100 µM throughout. The TGI in the experiment with SK-OV-3 ovarian, with TK-10 renal, in the experiment on UACC-257 melanoma and in the experiment on UACC-62 melanoma was above 100 µM in each case.
